Laboratory results from patent US20110044938A1 (NYCOMED GMBH, priority 2006, published 2011).

Legend:
[1] = system: RKO (RKOp27) human colon adenocarcinoma cells; assay: Alamar Blue cell viability assay, anti-proliferative/cytotoxic activity on proliferating RKO subclones; type: cell-based; conditions: RKOp27, 72 h, RKO p27 uninduced (proliferating) cells, value = class bound given in Table A, read-out: −logIC50 RKO p27 uninduced (proliferating) (converted)
How it was run: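 RKOp27 subclones (5000 cells/well) were exposed 24 h after seeding to semi-log compound dilutions in DMEM with 10% FCS, in quadruplicate, for 72 h at 37 °C. Viability was read by Alamar Blue fluorescence (544/590 nm) relative to untreated cells (1% DMSO medium). IC50 came from concentration-effect curves and is reported as −log IC50 [mol/l].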

[2] = system: subclones of RKO colon adenocarcinoma cells (RKOp27 or RKOp21) arrested by Ponasterone A; assay: Alamar Blue cell viability assay, cell cycle specific mode of action: cells arrested by ectopic p27Kip1 induced by Ponasterone A versus proliferating cells; type: cell-based; conditions: Homo sapiens, RKO p27 induced (arrested) cells, 10 μM Ponasterone A, 72 hours, value = class bound given in Table A, read-out: −logIC50 RKO p27 induced (arrested) (converted)
How it was run: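 RKOp27 or RKOp21 cells, 15000/well in DMEM/10% FCS, either arrested by p27Kip1 induced with 10 μM Ponasterone A or proliferating without inducer; compound added after 24 h, 72 h at 37° C. Alamar Blue fluorescence (544/590 nm), viability as % of untreated cells; −log IC50 reported.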

IC50 [2] | Compound | IC50 [1]
≥ 50.1 µM | Cc1cc(CNC(=O)OCC2CCc3c(sc(NC(=O)CC(C)c4ccccc4)c3C#N)C2)no1 (centres unmarked) [Example 314, (5-Methyl-isoxazol-3-ylmethyl)-carbamic acid 3-cyano-2-(3-phenyl-butanoylamino)-4,5,6,7-tetrahydro-benzo[b] thiophen-6-ylmethyl ester] | ≤ 0.501 µM
≥ 50.1 µM | CC(CC(=O)Nc1sc2c(c1C#N)CCC(COC(=O)NCC1CCCO1)C2)c1ccccc1 (centres unmarked) [Example 315, (Tetrahydrofuran-2-ylmethyl)-carbamic acid 3-cyano-2-(3-phenyl-butanoylamino)-4,5,6,7-tetrahydro-benzo[b]thiophen-6-ylmethyl ester] | 0.501 to 2 µM
≥ 50.1 µM | COc1cccc(C(C)CC(=O)Nc2sc3c(c2C#N)CCC(COC(=O)NCc2ccccn2)C3)c1 (centres unmarked) [Example 324, Pyridin-2-ylmethyl-carbamic acid 3-cyano-2-[3-(3-methoxy-phenyl)-butanoylamino]-4,5,6,7-tetrahydro-benzo[b] thiophen-6-ylmethyl ester] | 0.501 to 2 µM
≥ 50.1 µM | COc1cccc(C(C)CC(=O)Nc2sc3c(c2C#N)CCC(COC(=O)NCc2cccnc2)C3)c1 (centres unmarked) [Example 325, Pyridin-3-ylmethyl-carbamic acid 3-cyano-2-[3-(3-methoxy-phenyl)-butanoylamino]-4,5,6,7-tetrahydro-benzo[b]thiophen-6-ylmethyl ester] | 0.501 to 2 µM
≥ 10 µM | COc1cccc(C(C)CC(=O)Nc2sc3c(c2C#N)CCC(COC(=O)NCc2ccncc2)C3)c1 (centres unmarked) [Example 326, Pyridin-4-ylmethyl-carbamic acid 3-cyano-2-[3-(3-methoxy-phenyl)-butanoylamino]-4,5,6,7-tetrahydro-benzo[b]thiophen-6-ylmethyl ester] | 0.501 to 2 µM
≥ 50.1 µM | COc1cccc(C(C)CC(=O)Nc2sc3c(c2C#N)CCC(COC(=O)NCCc2cccnc2)C3)c1 (centres unmarked) [Example 327, (2-Pyridin-3-yl-ethyl)-carbamic acid 3-cyano-2-[3-(3-methoxy-phenyl)-butanoylamino]-4,5,6,7-tetrahydro-benzo[b]thiophen-6-ylmethyl ester] | 0.501 to 2 µM
≥ 50.1 µM | COc1cccc(C(C)CC(=O)Nc2sc3c(c2C#N)CCC(COC(=O)NCC2CCOCC2)C3)c1 (centres unmarked) [Example 328, (Tetrahydro-pyran-4-ylmethyl)-carbamic acid 3-cyano-2-[3-(3-methoxy-phenyl)-butanoyl-amino]-4,5,6,7-tetrahydro-benzo[b]thiophen-6-ylmethyl ester] | 0.501 to 2 µM
≥ 50.1 µM | COc1cccc(C(C)CC(=O)Nc2sc3c(c2C#N)CCC(COC(=O)NC2CCOCC2)C3)c1 (centres unmarked) [Example 329, (Tetrahydro-pyran-4-yl)-carbamic acid 3-cyano-2-[3-(3-methoxy-phenyl)-butanoyl-amino]-4,5,6,7-tetrahydro-benzo[b] thiophen-6-ylmethyl ester] | 0.501 to 2 µM
≥ 10 µM | COc1cccc(C(C)CC(=O)Nc2sc3c(c2C#N)CCC(COC(=O)NCc2nccn2C)C3)c1 (centres unmarked) [Example 330, (1-Methyl-1H-imidazol-2-ylmethyl)-carbamic acid 3-cyano-2-[3-(3-methoxy-phenyl)-butanoylamino]-4,5,6,7-tetrahydro-benzo[b] thiophen-6-ylmethyl ester] | 0.501 to 2 µM
≥ 10 µM | COc1cccc(C(C)CC(=O)Nc2sc3c(c2C#N)CCC(COC(=O)NCc2cncn2C)C3)c1 (centres unmarked) [Example 331, (3-Methyl-3H-imidazol-4-ylmethyl)-carbamic acid 3-cyano-2-[3-(3-methoxy-phenyl)-butanoylamino]-4,5,6,7-tetrahydro-benzo[b] thiophen-6-ylmethyl ester] | 0.501 to 2 µM
≥ 50.1 µM | COc1cccc(C(C)CC(=O)Nc2sc3c(c2C#N)CCC(COC(=O)NCc2ccnn2C)C3)c1 (centres unmarked) [Example 332, (2-Methyl-2H-pyrazol-3-ylmethyl)-carbamic acid 3-cyano-2-[3-(3-methoxy-phenyl)-butanoylamino]-4,5,6,7-tetrahydro-benzo[b] thiophen-6-ylmethyl ester] | 0.501 to 2 µM
≥ 10 µM | COc1cccc(C(C)CC(=O)Nc2sc3c(c2C#N)CCC(COC(=O)NCc2cnn(C)c2)C3)c1 (centres unmarked) [Example 333, (1-Methyl-1H-pyrazol-4-ylmethyl)-carbamic acid 3-cyano-2-[3-(3-methoxy-phenyl)-butanoylamino]-4,5,6,7-tetrahydro-benzo[b]thiophen-6-ylmethyl ester] | 0.501 to 2 µM
≥ 50.1 µM | COc1cccc(C(C)CC(=O)Nc2sc3c(c2C#N)CCC(COC(=O)NCc2cc(C)on2)C3)c1 (centres unmarked) [Example 334, (5-Methyl-isoxazol-3-ylmethyl)-carbamic acid 3-cyano-2-[3-(3-methoxy-phenyl)-butanoylamino]-4,5,6,7-tetrahydro-benzo[b]thiophen-6-ylmethyl ester] | ≤ 0.501 µM
≥ 50.1 µM | COc1cccc(C(C)CC(=O)Nc2sc3c(c2C#N)CCC(COC(=O)NC(C)c2cccnc2)C3)c1 (centres unmarked) [Example 335, (1-Pyridin-3-yl-ethyl)-carbamic acid 3-cyano-2-[3-(3-methoxy-phenyl)-butanoylamino]-4,5,6,7-tetrahydro-benzo[b] thiophen-6-ylmethyl ester] | 0.501 to 2 µM
≥ 10 µM | COc1cccc(C(C)CC(=O)Nc2sc3c(c2C#N)CCC(COC(=O)NCc2c[nH]nc2C)C3)c1 (centres unmarked) [Example 336, (3-Methyl-1H-pyrazol-4-ylmethyl)-carbamic acid 3-cyano-2-[3-(3-methoxy-phenyl)-butanoylamino]-4,5,6,7-tetrahydro-benzo[b] thiophen-6-ylmethyl ester] | 0.501 to 2 µM

The remaining lines, values behind:

Compound | IC50 [2] | IC50 [1]
CC(CC(=O)Nc1sc2c(c1C#N)CCC(COC(=O)NCc1nccn1C)C2)c1ccccc1 (centres unmarked) [Example 311, (1-Methyl-1H-imidazol-2-ylmethyl)-carbamic acid 3-cyano-2-(3-phenyl-butanoylamino)-4,5,6,7-tetrahydro-benzo[b] thiophen-6-ylmethyl ester] | ≥ 10 µM | ≤ 0.501 µM
CC(CC(=O)Nc1sc2c(c1C#N)CCC(COC(=O)NCc1cncn1C)C2)c1ccccc1 (centres unmarked) [Example 312, (3-Methyl-3H-imidazol-4-ylmethyl)-carbamic acid 3-cyano-2-(3-phenyl-butanoylamino)-4,5,6,7-tetrahydro-benzo[b] thiophen-6-ylmethyl ester] | ≥ 10 µM | ≤ 0.501 µM
CC(CC(=O)Nc1sc2c(c1C#N)CCC(COC(=O)NCc1ccnn1C)C2)c1ccccc1 (centres unmarked) [Example 313, (2-Methyl-2H-pyrazol-3-ylmethyl)-carbamic acid 3-cyano-2-(3-phenyl-butanoylamino)-4,5,6,7-tetrahydro-benzo[b] thiophen-6-ylmethyl ester] | ≥ 50.1 µM | ≤ 0.501 µM
CC(CC(=O)Nc1sc2c(c1C#N)CCC(COC(=O)NC(C)c1cccnc1)C2)c1ccccc1 (centres unmarked) [Example 316, (1-Pyridin-3-yl-ethyl)-carbamic acid 3-cyano-2-(3-phenyl-butanoylamino)-4,5,6,7-tetrahydro-benzo[b] thiophen-6-ylmethyl ester] | ≥ 10 µM | ≤ 0.501 µM
Cc1n[nH]cc1CNC(=O)OCC1CCc2c(sc(NC(=O)CC(C)c3ccccc3)c2C#N)C1 (centres unmarked) [Example 317, (3-Methyl-1H-pyrazol-4-ylmethyl)-carbamic acid 3-cyano-2-(3-phenyl-butanoylamino)-4,5,6,7-tetrahydro-benzo[b] thiophen-6-ylmethyl ester] | ≥ 10 µM | ≤ 0.501 µM
CC(CC(=O)Nc1sc2c(c1C#N)CCC(COC(=O)NC(C)c1ccnn1C)C2)c1ccccc1 (centres unmarked) [Example 318, [1-(2-Methyl-2H-pyrazol-3-yl)-ethyl]-carbamic acid 3-cyano-2-(3-phenyl-butanoylamino)-4,5,6,7-tetrahydro-benzo[b] thiophen-6-ylmethyl ester] | ≥ 10 µM | ≤ 0.501 µM
CC(CC(=O)Nc1sc2c(c1C#N)CCC(COC(=O)NCc1cccn1C)C2)c1ccccc1 (centres unmarked) [Example 319, (1-Methyl-1H-pyrrol-2-ylmethyl)-carbamic acid 3-cyano-2-(3-phenyl-butanoylamino)-4,5,6,7-tetrahydro-benzo[b] thiophen-6-ylmethyl ester] | ≥ 50.1 µM | ≤ 0.501 µM
Cc1nn(C)cc1CNC(=O)OCC1CCc2c(sc(NC(=O)CC(C)c3ccccc3)c2C#N)C1 (centres unmarked) [Example 320, (1,3-Dimethyl-1H-pyrazol-4-ylmethyl)-carbamic acid 3-cyano-2-(3-phenyl-butanoylamino)-4,5,6,7-tetrahydro-benzo[b]thiophen-6-ylmethyl ester] | ≥ 10 µM | ≤ 0.501 µM
Cc1cc(CNC(=O)OCC2CCc3c(sc(NC(=O)CC(C)c4ccccc4)c3C#N)C2)n(C)n1 (centres unmarked) [Example 321, (2,5-Dimethyl-2H-pyrazol-3-ylmethyl)-carbamic acid 3-cyano-2-(3-phenyl-butanoylamino)-4,5,6,7-tetrahydro-benzo[b] thiophen-6-ylmethyl ester] | ≥ 50.1 µM | ≤ 0.501 µM
CCn1nccc1CNC(=O)OCC1CCc2c(sc(NC(=O)CC(C)c3ccccc3)c2C#N)C1 (centres unmarked) [Example 322, (2-Ethyl-2H-pyrazol-3-ylmethyl)-carbamic acid 3-cyano-2-(3-phenyl-butanoylamino)-4,5,6,7-tetrahydro-benzo[b] thiophen-6-ylmethyl ester] | ≥ 50.1 µM | ≤ 0.501 µM
